Biological target: PARG (Homo sapiens (Human), UniProt Q86W56)
Experiment: PARG TFMU assay (4-(trifluoromethyl)umbelliferone substrate)
Assay type: biochemical
Settings: PARG 250 pM or 2 nM, 10-point dose response
Description: Example C. Inhibition of PARG TEMU Assay
The ability of the compounds of the Examples to inhibit PARG activity in 4. (trifluoromethyl)umbelliferone (TFMU) assay was determined as described below. PARG inhibitors were added into 384 well plate for a 10-point dose response curve at 1:3 dilutions. TFMU PARG substrate and PARG (250 pM or 2 nM) were then added to the plate to initiate enzymatic reaction. After incubation with the reagent, […] was read. IC50 values were calculated using set control points for 100% inhibition as no enzyme and 0% inhibition 250 pM or 2 nM of PARG enzyme.

Chain of PARG (Q86W56 whole entry): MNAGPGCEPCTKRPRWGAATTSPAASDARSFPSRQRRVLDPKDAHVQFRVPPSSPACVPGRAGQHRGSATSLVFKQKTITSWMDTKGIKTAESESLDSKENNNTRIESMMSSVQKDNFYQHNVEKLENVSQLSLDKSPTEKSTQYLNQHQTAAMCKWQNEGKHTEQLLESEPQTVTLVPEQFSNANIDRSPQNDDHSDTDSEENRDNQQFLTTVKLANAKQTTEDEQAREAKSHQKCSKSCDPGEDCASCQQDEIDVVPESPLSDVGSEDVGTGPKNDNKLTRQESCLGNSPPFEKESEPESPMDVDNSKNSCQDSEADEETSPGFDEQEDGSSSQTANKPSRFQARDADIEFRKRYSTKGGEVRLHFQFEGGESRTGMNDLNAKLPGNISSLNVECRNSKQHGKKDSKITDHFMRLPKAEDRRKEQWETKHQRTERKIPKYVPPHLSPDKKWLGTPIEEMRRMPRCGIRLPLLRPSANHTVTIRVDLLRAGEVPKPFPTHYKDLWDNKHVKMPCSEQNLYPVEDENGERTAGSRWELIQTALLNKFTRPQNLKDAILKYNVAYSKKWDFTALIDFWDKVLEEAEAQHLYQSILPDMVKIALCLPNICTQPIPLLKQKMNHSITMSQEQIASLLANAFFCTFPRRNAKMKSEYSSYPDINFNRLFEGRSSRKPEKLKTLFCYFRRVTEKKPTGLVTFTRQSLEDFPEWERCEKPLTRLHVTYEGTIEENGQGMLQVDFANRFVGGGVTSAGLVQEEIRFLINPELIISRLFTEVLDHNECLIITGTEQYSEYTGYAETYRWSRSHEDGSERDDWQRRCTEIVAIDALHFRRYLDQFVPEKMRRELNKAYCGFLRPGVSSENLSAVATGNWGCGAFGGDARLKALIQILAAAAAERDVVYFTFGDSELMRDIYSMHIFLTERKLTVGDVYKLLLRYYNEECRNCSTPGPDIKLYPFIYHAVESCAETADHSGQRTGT

| IC50 | SMILES |
| --- | --- |
| ≥ 5000 nM | CCn1c(=O)c2cc(S(=O)(=O)N[C@H]3CC[C@@H]3CO)ccc2n(CC)c1=O (single isomer, unassigned) [Example 75] |
| < 50 nM | CC(C)C(=O)N1CCN(c2cc(S(=O)(=O)NC3(CF)COC3)cc3c2cnn3-c2nnc(C3CC3)s2)CC1 [Example 43, 1-(5-cyclopropyl-1,3,4-thiadiazol-2-yl)-N-(3-(fluoromethyl)oxetan-3-yl)-4-(4-isobutyrylpiperazin-1-yl)-1H-indazole-6-sulfonamide] |
| < 50 nM | Cc1ncc(Cn2c(=O)c3cc(S(=O)(=O)NC4(CF)COC4)ccc3n(Cc3sc(C)nc3C)c2=O)s1 [Example 28B, 1-((2,4-dimethylthiazol-5-yl)methyl)-N-(3-(fluoromethyl)oxetan-3-yl)-3-((2-methylthiazol-5-yl)methyl)-2,4-dioxo-1,2,3,4-tetrahydroquinazoline-6-sulfonamide] |
| 500 to 5000 nM | N#CC1(NS(=O)(=O)c2cc(Cl)c3cnn(-c4nnc(C(F)F)s4)c3c2)COC1 [Example 63, 4-chloro-N-(3-cyanooxetan-3-yl)-1-(5-(difluoromethyl)-1,3,4-thiadiazol-2-yl)-1H-indazole-6-sulfonamide] |
| 50 to 500 nM | CC1(NS(=O)(=O)c2cc(Cl)c3cnn(-c4nnc(C(F)F)s4)c3c2)COC1 [Example 24] |
| < 50 nM | CC(C)S(=O)(=O)N1CCN(c2cc(S(=O)(=O)NC3(C)COC3)cc3c2cnn3-c2nnc(C(F)F)s2)CC1 [Example 33, 1-(5-(difluoromethyl)-1,3,4-thiadiazol-2-yl)-4-(4-(isopropylsulfonyl)piperazin-1-yl)-N-(3-methyloxetan-3-yl)-1H-indazole-6-sulfonamide] |
| < 50 nM | CN(CC(F)F)C(=O)N1CCN(c2cc(S(=O)(=O)NC3(CF)COC3)cc3c2cnn3-c2nnc(C(F)F)s2)CC1 [Example 77, N-(2,2-difluoroethyl)-4-(1-(5-(difluoromethyl)-1,3,4-thiadiazol-2-yl)-6-(N-(3-(fluoromethyl)oxetan-3-yl)sulfamoyl)-1H-indazol-4-yl)-N-methylpiperazine-1-carboxamide] |
| < 50 nM | CN(CC(F)F)C(=O)N1CCN(c2cc(S(=O)(=O)NC3(C)COC3)cc3c2cnn3-c2nnc(C(F)F)s2)CC1 [Example 37, N-(2,2-difluoroethyl)-4-(1-(5-(difluoromethyl)-1,3,4-thiadiazol-2-yl)-6-(N-(3-methyloxetan-3-yl)sulfamoyl)-1H-indazol-4-yl)-N-methylpiperazine-1-carboxamide] |
| 50 to 500 nM | CC(C)C(=O)N1CCN(c2cc(S(=O)(=O)NC3(C#N)COC3C)cc3c2cnn3-c2nnc(C(F)F)s2)CC1 (centres unmarked) [Example 32, N-(3-cyano-2-methyloxetan-3-yl)-1-(5-(difluoromethyl)-1,3,4-thiadiazol-2-yl)-4-(4-isobutyrylpiperazin-1-yl)-1H-indazole-6-sulfonamide] |
| 50 to 500 nM | CC1OCC1(C)NS(=O)(=O)c1cc(Cl)c2cnn(-c3nnc(C(F)F)s3)c2c1 (centres unmarked) [Example 71, 4-chloro-1-(5-(difluoromethyl)-1,3,4-thiadiazol-2-yl)-N-(2,3-dimethyloxetan-3-yl)-1H-indazole-6-sulfonamide] |
| 50 to 500 nM | COc1cc(S(=O)(=O)NC2(C)COC2)cc2c1cnn2-c1nnc(C(F)F)s1 [Example 73, 1-(5-(difluoromethyl)-1,3,4-thiadiazol-2-yl)-4-methoxy-N-(3-methyloxetan-3-yl)-1H-indazole-6-sulfonamide] |
| 500 to 5000 nM | CCn1c(=O)c2cc(S(=O)(=O)NC3(C)CNC3)ccc2n(CC)c1=O [Example 49, 1,3-diethyl-N-(3-methylazetidin-3-yl)-2,4-dioxo-1,2,3,4-tetrahydroquinazoline-6-sulfonamide] |
| ≥ 5000 nM | C=C[C@@H]1C[C@@]1(C#N)NS(=O)(=O)c1ccc2c(c1)c(=O)n(CC)c(=O)n2CC (single isomer, unassigned) [Example 52] |
| < 50 nM | C=Cc1nnc(-n2ncc3c(N4CCN(C(=O)C(C)C)CC4)cc(S(=O)(=O)NC4(CF)COC4)cc32)s1 [Example 47, N-(3-(fluoromethyl)oxetan-3-yl)-4-(4-isobutyrylpiperazin-1-yl)-1-(5-vinyl-1,3,4-thiadiazol-2-yl)-1H-indazole-6-sulfonamide] |
| 50 to 500 nM | CC(C)C(=O)N1CCN(c2cc(S(=O)(=O)NC3(C)CCC3)cc3c2cnn3-c2nnc(C(F)F)s2)CC1 [Example 21, 1-(5-(difluoromethyl)-1,3,4-thiadiazol-2-yl)-4-(4-isobutyrylpiperazin-1-yl)-N-(1-methylcyclobutyl)-1H-indazole-6-sulfonamide] |
| ≥ 5000 nM | C=C[C@@H]1C[C@]1(C#N)NS(=O)(=O)c1ccc2c(c1)c(=O)n(CC)c(=O)n2CC (single isomer, unassigned) [Example 51] |

| IC50 | SMILES |
| --- | --- |
| ≥ 5000 nM | CCn1c(=O)c2cc(S(=O)(=O)N[C@@H]3CC[C@H]3CO)ccc2n(CC)c1=O (single isomer, unassigned) [Example 74] |
| 50 to 500 nM | Cc1ncc(Cn2c(=O)[nH]c3ccc(S(=O)(=O)NC4(C#N)COC4)cc3c2=O)s1 [Example 25A, N-(3-cyanooxetan-3-yl)-3-((2-methylthiazol-5-yl)methyl)-2,4-dioxo-1,2,3,4-tetrahydroquinazoline-6-sulfonamide] |
| < 50 nM | O=C(C1CCCC1)N1CCN(c2cc(S(=O)(=O)NC3(CF)COC3)cc3c2cnn3-c2nnc(C(F)F)s2)CC1 [Example 34, 4-(4-(cyclopentanecarbonyl)piperazin-1-yl)-1-(5-(difluoromethyl)-1,3,4-thiadiazol-2-yl)-N-(3-(fluoromethyl)oxetan-3-yl)-1H-indazole-6-sulfonamide] |
| 50 to 500 nM | CN1CCN(c2cc(S(=O)(=O)NC3(C)COC3)cc3c2cnn3-c2nnc(C(F)F)s2)CC1 [Example 48, 1-(5-(difluoromethyl)-1,3,4-thiadiazol-2-yl)-N-(3-methyloxetan-3-yl)-4-(4-methylpiperazin-1-yl)-1H-indazole-6-sulfonamide] |
| < 50 nM | CC(C)C(=O)N1CCN(c2cc(S(=O)(=O)NC3(C)COC3)cc3c2cnn3-c2nnc(Br)s2)CC1 [Example 81, 1-(5-bromo-1,3,4-thiadiazol-2-yl)-4-(4-isobutyrylpiperazin-1-yl)-N-(3-methyloxetan-3-yl)-1H-indazole-6-sulfonamide] |
| < 50 nM | CC1(NS(=O)(=O)c2cc(N3CCN(C(=O)C4CCCC4)CC3)c3cnn(-c4nnc(C(F)F)s4)c3c2)COC1 [Example 76, 4-(4-(cyclopentanecarbonyl)piperazin-1-yl)-1-(5-(difluoromethyl)-1,3,4-thiadiazol-2-yl)-N-(3-methyloxetan-3-yl)-1H-indazole-6-sulfonamide] |
| < 50 nM | CC(C)C(=O)N1CCN(c2cc(S(=O)(=O)NC3(C#N)COC3)cc3c2cnn3-c2nnc(C(F)F)s2)CC1 [Example 30, N-(3-cyanooxetan-3-yl)-1-(5-(difluoromethyl)-1,3,4-thiadiazol-2-yl)-4-(4-isobutyrylpiperazin-1-yl)-1H-indazole-6-sulfonamide] |
| < 50 nM | CC(C)C(=O)N1CCN(c2cc(S(=O)(=O)N[C@@]3(C)CO[C@H]3C)cc3c2cnn3-c2nnc(C(F)F)s2)CC1 (single isomer, unassigned) [Example 27] |
| 50 to 500 nM | CC(C)C(=O)N1CCN(c2cc(S(=O)(=O)NC3COC3)cc3c2cnn3-c2nnc(C(F)F)s2)CC1 [Example 29, 1-(5-(difluoromethyl)-1,3,4-thiadiazol-2-yl)-4-(4-isobutyrylpiperazin-1-yl)-N-(oxetan-3-yl)-1H-indazole-6-sulfonamide] |
| < 50 nM | Cc1nnc(-n2ncc3c(N4CCN(C(=O)C(C)C)CC4)cc(S(=O)(=O)NC4(C)COC4)cc32)s1 [Example 45, 4-(4-isobutyrylpiperazin-1-yl)-1-(5-methyl-1,3,4-thiadiazol-2-yl)-N-(3-methyloxetan-3-yl)-1H-indazole-6-sulfonamide] |
| < 50 nM | CC(C)C(=O)N1CCN(c2cc(S(=O)(=O)NC3(CF)COC3)cc3c2cnn3-c2nncs2)CC1 [Example 44, N-(3-(fluoromethyl)oxetan-3-yl)-4-(4-isobutyrylpiperazin-1-yl)-1-(1,3,4-thiadiazol-2-yl)-1H-indazole-6-sulfonamide] |
| < 50 nM | C=Cc1nnc(-n2ncc3c(N4CCN(C(=O)C(C)C)CC4)cc(S(=O)(=O)NC4(C)COC4)cc32)s1 [Example 80, 4-(4-isobutyrylpiperazin-1-yl)-N-(3-methyloxetan-3-yl)-1-(5-vinyl-1,3,4-thiadiazol-2-yl)-1H-indazole-6-sulfonamide] |
| < 50 nM | CN(CC(F)F)C(=O)N1CCN(c2cc(S(=O)(=O)NC3(C#N)COC3)cc3c2cnn3-c2nnc(C(F)F)s2)CC1 [Example 41, 4-(6-(N-(3-cyanooxetan-3-yl)sulfamoyl)-1-(5-(difluoromethyl)-1,3,4-thiadiazol-2-yl)-1H-indazol-4-yl)-N-(2,2-difluoroethyl)-N-methylpiperazine-1-carboxamide] |
| < 50 nM | CC(C)C(=O)N1CCN(c2cc([S@TB20](=O)(=O)NC3(CF)COC3)cc3c2cnn3-c2nnc(C(F)F)s2)CC1 [Example 22, 1-(5-(difluoromethyl)-1,3,4-thiadiazol-2-yl)-N-(3-(fluoromethyl)oxetan-3-yl)-4-(4-isobutyrylpiperazin-1-yl)-1H-indazole-6-sulfonamide] |
| 50 to 500 nM | Cc1ncc(Cn2c(=O)c3cc(S(=O)(=O)NC4(C#N)COC4)ccc3n(Cc3sc(C)nc3C)c2=O)s1 [Example 25B, N-(3-cyanooxetan-3-yl)-1-((2,4-dimethylthiazol-5-yl)methyl)-3-((2-methylthiazol-5-yl)methyl)-2,4-dioxo-1,2,3,4-tetrahydroquinazoline-6-sulfonamide] |
| 50 to 500 nM | CN(C)c1cc(S(=O)(=O)NC2(C)COC2)cc2c1cnn2-c1nnc(C(F)F)s1 [Example 26, 1-(5-(difluoromethyl)-1,3,4-thiadiazol-2-yl)-4-(dimethylamino)-N-(3-methyloxetan-3-yl)-1H-indazole-6-sulfonamide] |
